From patent US11839659B2, “Proteolysis-targeting chimeric molecules (PROTACs) that induce degradation of indoleamine 2,3-dioxygenase (IDO) protein” (Northwestern University, priority 2020, dated 2023) come the findings set out here.

What all share (format): cell-based
The target in test [1] is T1, IDO1 (Homo sapiens, UniProt P14902).
T1 construct: IDO1 protein was induced in U87 cells with IFNg (50 ng/ml) for 24 hours followed by treatment with IDO-PROTAC; endogenous in cells; host or cells: U87 parental cells; GBM43 cells (IFNg-induced)
Put plainly: Western blot: effect of competitors and pathway inhibitors on IDO-PROTAC induced IDO1 degradation. To be noted: co-treatment with IDO-PROTAC, U87 cells where stated.

Test [2] has as its target T1, IDO1. Put plainly: Enzyme-dependent (kynurenine production) and enzyme-independent (phospho-NFkB p65) functions of IDO1 in GBM cells. To be noted: GBM cells (U87, GBM43). The method, then: FIG. 24. […] A & B. Effect of IDO-PROTAC, mutant IDO-PROTAC, and IDO-inhibitor on kynurenine production in U87 & GBM43 cells respective cells. Cells were treated with IDO-PROTAC, mutant IDO-PROTAC, or IDO-inhibitor in the presence of INFg (50 ng/ml) for 24 hours and cell culture supernatants were collected to measure IFNg-induced kynurenine levels using a modified Erlich method. Cells cultured in the absence of IFNg serves as a control group. C. Western blotting analysis to determine the effect of IDO-PROTAC and IDO-inhibitor on IDO1 protein levels, phospho-NFkB (p65) levels, total-NFkB (p65) levels and GAPDH levels in U87 cells. IDO1 protein was induced with IFNg for 24 hours in U87 cells followed by treatment with IDO-PROTAC and IDO-inhibitor for 24 hours at multiple concentrations. D. Western blotting analysis to determine the effect of IDO-PROTAC, mutant IDO-PROTAC, and IDO-inhibitor on IDO1 protein levels, phospho-NFkB (p65) levels, total-NFkB (p65) levels and GAPDH levels in a breast cancer cell line, MDA MB 231. E. Western blotting analysis to determine the effect of IDO-PROTAC on the levels of IDO1 protein, phospho-NFkB (p65), total-NFkB (p65) and GAPDH in U87 IDO1 overexpressing (flag-tagged) cells. Cells were treated with DMSO or IDO-PROTAC (10 uM) for 24 hours prior to protein extraction. U87 parental cells serves as a control group for basal phosphorylation of NFkB. […]

Test [3] has as its target T1, IDO1. Put plainly: Western blot of IFNg-induced IDO1 protein levels in U87 cells after IDO-PROTAC treatment. The following applies: IFNg (50 ng/ml) 24 hours, then IDO-PROTAC 24 hours. How it is done:
FIG. 2. Screening method for PROTAC-induced degradation of IDO1 using INFg-treated U87 parental cells.
(§1) FIG. 20. Discovery of lead IDO-PROTAC to induce IDO1 degradation in cancer cells. A. Schema for screening IDO-PROTAC compounds in U87 cells. […] Percent IFNg-induced IDO1 levels (normalized to untreated samples) were calculated in U87 cells after treating with IDO-PROTAC compounds at 0, 0.1, 1, and 10 uM concentration for 24 hours. C. […] IDO1 was induced in U87 and GBM43 cells with IFNg (50 ng/ml) for 24 hours followed by treatment with IDO-PROTAC for 24 hours before protein samples were prepared for western blotting analysis. D. Percent normalized IDO1 protein levels in U87 and GBM43 cells (from panel C) after treating with lead IDO-PROTAC (NU223612) for 24 hours. E & F. Testing moderate and poor IDO-PROTAC compounds on IDO1 protein levels in U87 cells. […] Structures of IDO-PROTAC (I), mutant IDO-PROTAC (J), and parental compound (K).
FIG. 27. Representative western blots to identify a lead IDO-PROTAC in U87 cells. IDO1 protein was induced in U87 cells with IFNg (50 ng/ml) for 24 hours followed by treatment with IDO-PROTAC at 0, 0.1, 1, and 10 uM for 24 hours before protein samples were prepared for western blotting analysis of IDO1 and GAPDH.

Test [4] has as its target T1, IDO1. Briefly: Western blot of IFNg-induced IDO1 protein levels in GBM43 cells after IDO-PROTAC treatment. The following applies: IFNg (50 ng/ml) 24 hours, then IDO-PROTAC 24 hours. How it is done: as §1

“Also recorded” adds a separate entry of the source. Peptide text beside a SMILES is read from it. * marks the point of attachment. Cbz = O=C(OCc1ccccc1)*

T1 sequence (P14902 whole entry): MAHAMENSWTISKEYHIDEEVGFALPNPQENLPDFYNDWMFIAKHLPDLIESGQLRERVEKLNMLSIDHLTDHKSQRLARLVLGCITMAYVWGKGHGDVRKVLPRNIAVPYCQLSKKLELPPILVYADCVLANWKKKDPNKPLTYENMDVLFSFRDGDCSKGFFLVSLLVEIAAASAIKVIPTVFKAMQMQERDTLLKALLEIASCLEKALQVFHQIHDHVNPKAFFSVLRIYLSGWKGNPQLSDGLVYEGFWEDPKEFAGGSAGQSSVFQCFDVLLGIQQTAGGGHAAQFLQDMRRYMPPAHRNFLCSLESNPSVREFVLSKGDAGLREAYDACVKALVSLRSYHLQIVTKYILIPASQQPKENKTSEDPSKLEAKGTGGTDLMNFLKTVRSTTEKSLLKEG

In the case of `Nc1cccc2c1C(=O)N(C1CCC(=O)NC1=O)C2=O` (stereo not shown) [Pomalidomide], the entries for the “Effect on NU223612 (IDO-PROTAC) induced IDO1 degradation” value (“Effect on NU223612” below) at IDO1 [1] and on IDO1 [1] (listed as CRBN ligand) were “blocks IDO-PROTAC-induced IDO1 degradation” and “blocks NU223612 induced IDO1 degradation”, respectively.

As for `CC(C)C[C@@H](C=O)NC(=O)[C@H](CC(C)C)NC(=O)[C@H](CC(C)C)NC(=O)OCc1ccccc1` [MG132] (Cbz-Leu-Leu-Leu-aldehyde), the “Effect on NU223612” value on IDO1 [1] was “blocks NU223612 induced IDO1 degradation; also recorded: blocks IDO-PROTAC-induced IDO1 degradation”. Turning to `NS(=O)(=O)OC[C@@H]1C[C@@H](n2ccc3c(N[C@H]4CCc5ccccc54)ncnc32)C[C@@H]1O` [MLN4924], the “Effect on NU223612” value at IDO1 [1] is “blocks IDO-PROTAC-induced IDO1 degradation”. For `C[C@@H](C(=O)Nc1ccc(OC2CCN(C(=O)CCOCCOCCNc3cccc4c3C(=O)N(C3CCC(=O)NC3=O)C4=O)CC2)cc1)[C@H]1CC[C@@H](c2ccnc3ccc(F)cc32)CC1` (stereo partly shown) [NU223612], on IDO1 [2], the “Effect on enzyme-dependent and enzyme-independent functions of IDO1” value is “inhibits both enzyme-dependent and enzyme-independent functions of IDO1”. Also, the “IDO1 degradation (western blot)” value at IDO1 [3] and on IDO1 [4] was “induced IDO1 degradation” each time.
